How the values were obtained:
[1] = test system: mesophilic and psychrotrophic bacteria; details: 3 minutes (Kim et al. 1999); cited from earlier work
[2] = test system: Salmonella enterica serovar Newport SN78; test: Ozone-plant antimicrobial wash of inoculated iceberg lettuce leaves; format: cell-based; details: ozonated wash
Description: Bacterial culture: Salmonella enterica serovar Newport SN78 (bovine isolate; provided by Dr. Marilyn Erickson, University of Georgia, Griffin, GA) was used for this experiment. Dual antibiotic resistance (100 μg/ml ampicillin and 25 μg/ml streptomycin, Amresco, Solon, OH) was developed in the strain through incremental antibiotic exposure. […] The frozen stock culture was initially revived through two transfers into brain heart infusion broth (BHIB) (Becton, Dickinson and Co (BD), Sparks, MD) followed by isolation on xylose lysine desoxycholate (XLD) agar (Becton, Dickinson and Co (BD), Sparks, MD) containing 100 μg/ml ampicillin and 25 μg/ml streptomycin.
Inoculum Preparation: For each experiment, a 20 hour overnight culture was prepared by inoculating 100 μl of the culture in 30 ml of tryptic soy broth (TSB) containing 100 μg/ml ampicillin and 25 μg/ml streptomycin and incubating at 37° C. in a desktop orbital shaker at 200 rpm (MaxQ 4450, Thermo Scientific, Dubuque, IA, USA). The cells in the medium were pelleted by centrifugation at 4000 g (Eppendorf Model 5810, Hamburg, Germany) and the supernatant was discarded. […]. The four outer leaves of the iceberg lettuce were removed and discarded. Whole leaf samples (10 g±0.5 g each) were used. The iceberg lettuce samples were inoculated by immersing 10 g portions into the PBS-S. Newport suspension for 2 minutes. After immersion, the excess culture suspension was allowed to drain from the leaf and the leaves were allowed to dry in a biohood for 1 hour to aid in the attachment of S. Newport to the leaf surface.
Antimicrobial wash solution preparation: The test plant-based antimicrobials used in this study consisted of oregano oil made from pure Origanum vulgare (Lhasa Karnak Company, Berkeley, California), its active component carvacrol (98% pure, molecular weight 150.2, CAS no. 499-75-2, Sigma, St. Louis, MO), olive extract (CreAgri, Hayward, CA), and quillaja saponin made from Quillaja saponaria (Sigma Aldrich, St. Louis, MO). […]

total plate counts = details: Wang et al. 2004; cited from earlier work

SMILES: O=[O+][O-] [ozonized water, ozone]
- decreased counts of mesophilic bacteria on shredded lettuce [1]: 1.4 log CFU/g
- decreased counts of psychrotrophic bacteria on shredded lettuce [1]: 1.8 log CFU/g
- reduction in S. Newport population on iceberg lettuce leaves ([2]; 60 min): 1.76±0.27 log CFU/g
- reduction in S. Newport population on iceberg lettuce leaves ([2]; 90 min): 1.67±0.28 log CFU/g
- reduction in S. Newport population on iceberg lettuce leaves ([2]; 120 min): 2.09±0.54 log CFU/g
- total plate counts on cilantro leaves after treatment (total plate counts): did not decrease total plate counts
